Measurements from patent US7285618B1, “Polypeptides having neutrophil stimulating activity” (Japan Tobacco Inc., priority 2000, dated 2007).
Where no end group is shown, it is not given here.

Tests used:
[1] = tested on: differentiated HL60 cells; test: Intracellular Ca2+ concentration (fura-2), differentiated HL60 cells; type: cell-based, human; conditions: for increase of intracellular Ca2+ concentration in the absence of extracellular Ca2+: absence of Ca2+ (−) versus presence (+); for increase in intracellular Ca2+ concentration upon stimulation after PTX treatment: cells treated with 50 ng/ml PTX for 16 hours; for intracellular Ca2+ concentration: differentiated HL60 cells (+); for intracellular Ca2+ concentration with or without extracellular Ca2+: extracellular Ca2+ present or not
Procedure: (§1) The differentiated HL60 cells or undifferentiated HL60 cells were washed twice with a Hepes-Na solution (140 mM NaCl, 4 mM KCl, 1 mM NaH2PO4, 1 mM MgCl2, 1.25 mM CaCl2, 5 mM Hepes, 11 mM glucose, 0.2% BSA, pH 7.4). Then, Ca^2+ sensitive fluorescence reagent, fura-2/AM, was added to the cell suspension (4 ml: final concentration, 4 μM). The reaction mixture was then shaken gently at room temperature for 60 minutes, shielded from light in order to incorporate fura-2 into the HL60 cells. Subsequently, the cells were washed twice with a Hepes-Na solution and a cell suspension was prepared at a final cell density of 1.0×10^6 cells/ml. One milliliter of the cell suspension was put into reaction cuvettes and stimulated with various samples under stirring at 30° C. Ratios of fluorescence intensity at 500 nm (F) for an excitation wavelength at 340 nm to that at 380 nm were measured with a fluorimeter (CAF-100, Japan Spectroscopic Co., Ltd.) and [Ca^2+]i was calculated following the formula: [Ca^2+]i(nM)=K×{(F−Fmin)/(Fmax−F)}×A/B, wherein
(§2) Fmax: a ratio of fluorescence intensity at 500 nm for an excitation wavelength at 340 nm to that at 380 nm after all cells were solubilized with 0.1% Triton X-100;
(§3) Fmin: a ratio of fluorescence intensity at 500-nm for an excitation wavelength at 340 nm to that at 380 nm after the whole calcium was chelated with 4 mM EGTA;
(§4) A: fluorescence intensity at 500-nm for an excitation wavelength at 380 nm, when all the calcium was chelated with EGTA;
(§5) B: fluorescence intensity at 500-nm for an excitation wavelength at 380 nm, when all cells were solubilized with Triton X-100;
(§6) K: 224 (nM) (the dissociation constant of fura-2).

[2] = tested on: human neutrophils; test: β-HA secretion from human neutrophils; type: cell-based; conditions: for β-HA secretion from neutrophil cells (%/total): human neutrophils; for secretion of β-HA from human neutrophils: stimulation with 10 μM
Procedure: b. Preparation of Human Leukocytes
Thirty milliliters of human peripheral blood (containing 500 units of heparin sodium) was plated on 5 ml of Lymphocepal I in each of 4 centrifugal tubes and spun down (400 g, 30 min) at room temperature. After spinning, the monocytes and lymphocytes forming a turbid layer at the interface between the plasma and Lymphocepal I were carefully taken to be removed. […] The Percoll layer containing neutrophils was carefully taken and washed with physiological saline. Then, it was replaced by a 0.2% NaCl solution and about 30 seconds later, an equal amount of 1.6% NaCl aqueous solution was added; this procedure was repeated twice, whereby the left erythrocytes were lysed and neutrophils were isolated.
The purities of these monocyte-lymphocyte mixed cells and neutrophils were assayed by analysis with a flow cytometer. Propidium iodide was added to the cell suspension at a final concentration of 100 ng/ml in order to stain dead cells. Using a flow cytometer, forward scatter intensity and side scatter intensity were measured on a linear scale only for the negative cells (living cells) in the cell suspension for the propidium iodide-staining. The results were processed by CellQuest software and represented as a dot plot of forward scatter intensity (X-axis) and side scatter intensity (Y-axis). The purify of monocycle-lymphocyte mixed cells were 84% and that of the neutrophils were 83%. […]
c. Stimulation of the Cell […]
d. Measuring β-HA Enzyme Activity
The amount of β-HA secreted into the reaction supernatant was determined by measuring the absorbance at 415 nm of p-nitrophenol that was generated by an enzymatic reaction involving p-nitrophenyl N-acetyl-β-D-glucosaminide as a substrate. To be specific, 90 μl of the reaction supernatant was transferred to a 96-well Immuno plate (Nunc) and 60 μl of a substrate solution (10 mM p-nitrophenyl N-acetyl-β-D-glucosaminide/40 mM citrate, 70 mM Na2HPO4, pH 4.5) was added to initiate an enzymatic reaction. Following a 1-hr reaction at 37° C., 100 μl of a reaction quencher (400 mM glycine, pH 10.7) was added to stop the reaction and the absorbance at 415 nm was measured. As a control, cells were treated with Triton X-100 at a final concentration of 0.05% and the amount of β-HA in the supernatant was measured. As another control, the amount of β-HA secreted from cells upon stimulation with fMLP at a final concentration of 10 μM was measured.

[3] = tested on: undifferentiated HL60 cells; test: Intracellular Ca2+ concentration (fura-2), undifferentiated HL60 cells; type: cell-based, human
Procedure: as §1, §2, §3, §4, §5, §6

[4] = tested on: differentiated HL60 cells; test: Migration promoting activity (Chemotaxis Cells), differentiated HL60 cells; type: cell-based, human
Procedure: The migration promoting activity of each of the polypeptides of interest was measured using Chemotaxis Cells (Kurabo) as follows: The differentiated HL60 cells or undifferentiated HL60 cells were washed three times with ice-cooled HBHS and a cell suspension was prepared at a cell density of 4×10^6 cells/ml. The cell suspension was incubated at 37° C. for 10 minutes; thereafter, 500 μl of the cell suspension was transferred to Chemotaxis Cells (2×10^6 cells/Cell), which were put on a micro-well plate filled with pre-heated (37° C.) HBHS containing 1 ml of polypeptide and incubation was performed at 37° C. for 1 hour. Then, the Chemotaxis Cells were removed from the plate and the number of cells that had migrated in each well was counted.
Migration promoting activity was expressed by a chemotaxis index, or the number of cells that migrated upon stimulation was divided by the number of cells migrated without stimuli.
The activity of the human homologues of COSP-1 and fCyt b (1-15) for promoting β-HA secretion and migration promoting activities were measured following the methods described in Examples 4 and 5, respectively. The activity for β-HA secretion was expressed by the percentage for the maximum amount of secretion upon stimulation with 10 μM of fMLP, whereas the activity for migration was expressed by a chemotaxis index, i.e., the ratio of the number of stimulated migrating cells to that of unstimulated migrating cells.

## LSFLIPAGWVLSHLDHYKRSSAA-OH [COSP-1]
[1]
  increase of intracellular Ca2+ concentration in the absence of extracellular Ca2+: reduced
  increase in intracellular Ca2+ concentration upon stimulation after PTX treatment: almost completely inhibited
  intracellular Ca2+ concentration: increased
  intracellular Ca2+ concentration with or without extracellular Ca2+: increased irrespective of whether extracellular Ca^2+ was present or not
[2]
  β-HA secretion from neutrophil cells (%/total): 40.5 %/total
  secretion of β-HA from human neutrophils: 40.5%
[3]
  intracellular Ca2+ concentration: did not increase
[4]
  migration promoting (attracting) activity: attracting activity

## CSCC[C@H](NC=O)C(=O)N[C@@H](CC(C)C)C(=O)N[C@@H](Cc1ccccc1)C(=O)O [fMLP, formyl methionyl-leucyl-phenylalanine, reference compound]
[1]
  increase of intracellular Ca2+ concentration in the absence of extracellular Ca2+: reduced
  increase in intracellular Ca2+ concentration upon stimulation after PTX treatment: almost completely inhibited
  intracellular Ca2+ concentration: increased
  intracellular Ca2+ concentration with or without extracellular Ca2+: increased irrespective of whether extracellular Ca^2+ was present or not
[2]
  β-HA secretion from neutrophil cells (%/total): 68.3 %/total
  secretion of β-HA from human neutrophils: 68.3%
[3]
  intracellular Ca2+ concentration: did not increase
[4]; Example 12
  activity for migration at the concentrations where β-HA secretion was observed: also observed
  concentrations of migration activity relative to the concentration for β-HA secretion: observed at concentrations lower
